# Where a name gives a salt, the structure may show the parent alone.
# Columns and labels:
# hPPARdelta = biological target: T1, hPPARdelta (Homo sapiens, UniProt Q03181); assay: Gal4-hPPARdelta transactivation assay in COS-7 cells (luciferase); format: cell-based; settings: for EC50: Gal4-hPPARδ(LBD) transactivation
# T1 construct: Gal4-hPPARδ(LBD); Gal4 (fusion partner); expressed in transfected cells; host or cells: COS-7 (monkey kidney)
# T1 sequence (Q03181 211-439 limits assumed): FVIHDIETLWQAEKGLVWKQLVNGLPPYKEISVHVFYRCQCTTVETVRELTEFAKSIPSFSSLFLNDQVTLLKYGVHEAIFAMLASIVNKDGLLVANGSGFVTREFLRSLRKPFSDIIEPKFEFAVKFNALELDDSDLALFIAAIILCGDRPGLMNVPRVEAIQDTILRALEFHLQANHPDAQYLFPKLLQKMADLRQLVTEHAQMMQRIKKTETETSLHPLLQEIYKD
# Outline: (§1)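 COS-7 cells transiently co-transfected with Gal4-hPPAR chimeras and a Gal4(RE)_TkpGL3 luciferase reporter (1/50 ratio) were seeded at 20,000 cells/well for 4 h, then treated in 2% lipid-free synthetic serum medium (0.1% DMSO). EC50 and Hill slope came from fitted luciferase curves. Emax is relative to fenofibrate 100 μM (α), rosiglitazone 10 μM (γ) or GW501516 1 μM (δ).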
# hPPARalpha = biological target: T2, hPPARalpha (Homo sapiens, UniProt Q07869); assay: Gal4-hPPARalpha transactivation assay in COS-7 cells (luciferase); format: cell-based; settings: for EC50: Gal4-hPPARα(LBD) transactivation
# T2 construct: Gal4-hPPARα(LBD); Gal4 (fusion partner); expressed in transfected cells; host or cells: COS-7 (monkey kidney)
# T2 sequence (Q07869 239-466 limits assumed): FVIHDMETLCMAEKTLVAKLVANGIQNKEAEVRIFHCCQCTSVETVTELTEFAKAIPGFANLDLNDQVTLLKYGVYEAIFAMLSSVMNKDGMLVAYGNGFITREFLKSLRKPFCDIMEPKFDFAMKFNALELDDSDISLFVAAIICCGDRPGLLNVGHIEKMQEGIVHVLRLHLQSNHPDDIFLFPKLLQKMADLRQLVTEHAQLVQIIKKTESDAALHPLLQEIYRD
# Outline: as §1
# hPPARgamma = biological target: T3, hPPARgamma (Homo sapiens, UniProt P37231); assay: Gal4-hPPARgamma transactivation assay in COS-7 cells (luciferase); format: cell-based; settings: for EC50: Gal4-hPPARγ(LBD) transactivation
# T3 construct: Gal4-hPPARγ(LBD); Gal4 (fusion partner); expressed in transfected cells; host or cells: COS-7 (monkey kidney)
# T3 sequence (P37231 238-503 limits assumed): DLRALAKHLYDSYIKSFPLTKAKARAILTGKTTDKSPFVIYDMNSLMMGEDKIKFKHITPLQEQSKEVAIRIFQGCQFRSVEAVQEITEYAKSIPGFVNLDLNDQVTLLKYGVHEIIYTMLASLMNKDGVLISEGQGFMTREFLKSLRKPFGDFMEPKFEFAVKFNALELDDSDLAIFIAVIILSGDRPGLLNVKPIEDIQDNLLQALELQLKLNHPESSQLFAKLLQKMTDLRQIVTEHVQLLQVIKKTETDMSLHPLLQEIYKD
# Outline: as §1
# [1] = maximal relative activation vs reference, listed as cpd 14-2-2
EC50 (hPPARdelta),EC50 (hPPARalpha),EC50 (hPPARgamma),melting point,EC50 (hPPARdelta; listed as cpd 14-2-2),Gal4-hPPARδ(LBD) TOP (% ref) (hPPARdelta; [1]),EC50 (hPPARalpha; listed as cpd 14-2-2),Gal4-hPPARγ(LBD) TOP (% ref) (hPPARgamma; [1]),"Emax (hPPARdelta; COS-7, maximal relative activation vs reference, read-out: Gal4-hPPARδ(LBD) TOP (% ref))","Emax (hPPARalpha; COS-7, maximal relative activation vs reference, read-out: Gal4-hPPARα(LBD) TOP (% ref))","Emax (hPPARgamma; COS-7, maximal relative activation vs reference, read-out: Gal4-hPPARγ(LBD) TOP (% ref))",SMILES
30 nM,41 nM,17 nM,190 to 194 °C,,,,,,,,"COC(c1ccc(OC(F)(F)F)cc1)C1CC1c1cc(C)c(OC(C)(C)C(=O)O)c(C)c1 (single isomer, unassigned) [Cpd 14-2, 2-(4-(2-(methoxy(4-(trifluoromethoxy)phenyl)methyl)cyclopropyl)-2,6-dimethylphenoxy)-2-methylpropanoic acid]"
,,,155 to 156 °C,,,,,,,,"COC(c1ccc(OC(F)(F)F)cc1)C1CC1c1cc(C)c(OC(C)(C)C(=O)O)c(C)c1 (single isomer, unassigned) (as salt: TFA) [Cpd 14-1-1, 2-(4-(2-(methoxy(4-(trifluoromethoxy)phenyl)methyl)cyclopropyl)-2,6-dimethylphenoxy)-2-methylpropanoic acid]"
,,,,59 nM,57 % ref,17 nM,72 % ref,,,,"COC(c1ccc(OC(F)(F)F)cc1)C1CC1c1cc(C)c(OC(C)(C)C(=O)O)c(C)c1 (stereo not shown) [Cpd 14-2-2, 2-(4-(2-(methoxy(4-(trifluoromethoxy)phenyl)methyl)cyclopropyl)-2,6-dimethylphenoxy)-2-methylpropanoic acid]"
40 nM,239 nM,44 nM,133 °C,,,,,84%,44%,68%,"COC(c1ccc(Br)cc1)C1CC1c1cc(C)c(OC(C)(C)C(=O)O)c(C)c1 (racemic) [Cpd 1-1, 2-(4-(2-(methoxy(4-bromophenyl)methyl)cyclopropyl)-2,6-dimethylphenoxy)-2-methylpropanoic acid]"
